From US8420815B1, “Anti-cancer agents based on N-acyl-2, 3-dihydro-1H-pyrrolo[2,3-b]quinoline derivatives and a method of making” (U.S. Department of Energy, priority 2010, dated 2013)

tested on: DU-145 cells; assay: Cell proliferation assay (Alamar-Blue), proliferation inhibition of DU-145 cells; type: cell-based; conditions: Homo sapiens, 72 h, 3 days incubation, Alamar-Blue fluorescence
Description: Protocol for Cell Proliferation Assay:
This homogeneous assay involves simply adding a single reagent, the Alamar-Blue, to the cell culture and measuring the fluorescence intensity (excitation wavelength=530 nm, emission wavelength=590 nm) after an incubation step. The Alamar-Blue reagent utilizes the redox dye resazurin, which is not fluorescent, but upon reduction by metabolically active cells is converted into a highly fluorescent product (resorufin). A decrease in fluorescence in the presence of a test compound indicates reduced proliferation. This change in signal is proportional to the number of viable cells and used as a measure of relative cytotoxicity. Therefore, the fluorescence intensity observed in this assay is a true measure of the viable proliferative cells.
• 2 mM stock of Paclitaxel in DMSO. • DMSO (Panreac, Cat. number 141954.1611) • Resazurin sodium salt (Sigma, R-7071). 50 mM stock in DMSO. Equipment • Biomek FX Laboratory Automated Workstation (Beckman Coulter Inc., Fullerton, Calif.) • CO2 incubator (VWR Science, USA) • Bright line Hemacytometer (Z359629, Sigma, IL, USA) Materials • 384-deep well plates (Greiner, N^o 781270) • 384-well optical bottom tissue culture plates (Greiner, No. 82051-282) Propagation CONDITIONS: 37° C., air 95%; carbon dioxide (CO2) 5%, humidified atmosphere. Subculturing: • Cells were grown in 175 cm^2 flasks to 90-100% of confluency. • Culture medium (RPMI-1640 (Paneco, C310)+10% fetal bovine serum (FBS)) was aspirated and cell layer was briefly rinsed with 0.53 mM EDTA (ethylenediaminetetraacetic acid) solution to remove all traces of serum. • 2 ml of 0.2% trypsin/0.53 mM EDTA solution was added to cells. • Flasks were returned to incubator for 5 min to allow cells detachment. • Add 6.0 ml of culture medium. • Single cell suspension was created by gently pipetting. • Cells are counted using a Hematocytometer and suspension with desirable cell concentration is prepared.
To test proliferation inhibition DU-145 cells were plated in 384-well plate at the density 4000 cells/well. Next day 4 mM solutions of compounds in DMSO were diluted 100 times in medium and added to cells to final concentration 20 uM (40 ul of cells+40 ul of compounds). Taxol at final concentration 1 uM was used as positive control. Cells were incubated with compounds for 3 days. After that Alamar-Blue was added to cells to final concentration of 50 uM. After incubation for 4-6 hours at 37° C., fluorescence in plate was read using fluorescence plate reader Wallac 1420 (530 nm excitation filter, 590 nm emission filter). Proliferation inhibition was calculated using formula: % INH=100*((Fnegative−compound signal)/(Fnegative−Fpositive)), • Fnegative—DMSO was added to cells (viable cells) • Fpositive—taxol (1 uM) was added to cells (number of cells at the first day of incubation)

IC50 [µM]	Structure (SMILES)
0.114	COc1cc(C(=O)N2CCc3cc4ccccc4nc32)cc(OC)c1OC [Example 1, 2,3-dihydro-1H-pyrrolo[2,3-b]quinolin-1-yl(3,4,5-trimethoxyphenyl)methanone]
0.183	COc1ccc(C(=O)N2CCc3cc4cc(C)ccc4nc32)cc1OC [Example 2, (3,4-dimethoxyphenyl)(6-methyl-2,3-dihydro-1H-pyrrolo[2,3-b]quinolin-1-yl)methanone]
0.613	COc1cccc(C(=O)N2CCc3cc4cc(C)ccc4nc32)c1 [Example 3, (3-methoxyphenyl)(6-methyl-2,3-dihydro-1H-pyrrolo[2,3-b]quinolin-1-yl)methanone]
3.62	COc1ccccc1C(=O)N1CCc2cc3ccccc3nc21 [Example 4, 2,3-dihydro-1H-pyrrolo[2,3-b]quinolin-1-yl(2-methoxyphenyl)methanone]
10.3	Cc1ccc(C(=O)N2CCC=c3cc(C)c4c(c32)C=CN=4)cc1 [Example 5, (6-methyl-2,3-dihydro-1H-pyrrolo[2,3-h]quinolin-1-yl)(4-methylphenyl)methanone]
16.1	COc1ccccc1C(=O)N1CCc2cc3cccc(C)c3nc21 [Example 6, (2-methoxyphenyl)(8-methyl-2,3-dihydro-1H-pyrrolo[2,3-b]quinolin-1-yl)methanone]
17.2	CC1=Cc2c3c(ccc2=N1)=CCCN3C(=O)c1ccccc1C [Example 7, (8-methyl-2,3-dihydro-1H-pyrrolo[2,3-h]quinolin-1-yl)(2-methylphenyl)methanone]
134	Cc1cccc2cc3c(nc12)N(C(=O)c1ccccc1F)CC3 [Example 8, (2-fluorophenyl)(8-methyl-2,3-dihydro-1H-pyrrolo[2,3-b]quinolin-1-yl)methanone]
238	O=C(c1ccccc1Br)N1CCc2cc3ccccc3nc21 [Example 9, (2-bromophenyl)(2,3-dihydro-1H-pyrrolo[2,3-b]quinolin-1-yl)methanone]
4400	CC1=Cc2c3c(ccc2=N1)=CCCN3C(=O)c1cccc(F)c1 [Example 10, (3-fluorophenyl)(8-methyl-2,3-dihydro-1H-pyrrolo[2,3-h]quinolin-1-yl)methanone]
15000	Cc1cccc2cc3c(nc12)N(C(=O)c1ccccc1Br)CC3 [Example 11, (2-bromophenyl)(8-methyl-2,3-dihydro-1H-pyrrolo[2,3-b]quinolin-1-yl)methanone]
